Laboratory results as given in patent publication US7135462B2, “Hepatitis C virus inhibitors” (priority 2003, dated 2006).
Where two headings read alike, the source gives them in different places.

How the values were obtained:
[1] = target: T1, HCV NS3/4A protease complex (BMS strain) (UniProt P27958, C1454S/C1711G, species not given); experiment: Recombinant HCV NS3/4A protease complex FRET peptide assay; assay type: biochemical, Hepatitis C virus (HCV), genotype 1a; conditions: NS3/4A BMS strain, activity range class
T1 construct: for H77 and J4L6S; fused on or other part: Three-lysine solubilising tail at the C-terminus of NS4A
Description: Recombinant HCV NS3/4A Protease Complex FRET Peptide Assay
Serum from an HCV-infected patient was obtained from Dr. T. Wright, San Francisco Hospital. An engineered full-length cDNA (compliment deoxyribonucleic acid) template of the HCV genome (BMS strain) was constructed from DNA fragments obtained by reverse transcription-PCR (RT-PCR) of serum RNA (ribonucleic acid) and using primers selected on the basis of homology between other genotype 1a strains.
The H77 and J4L6S strains were used for production of recombinant NS3/4A protease complexes. […] Briefly, a three-lysine solubilizing tail was added at the 3′-end of the NS4A coding region. […] Briefly, the NS3/4A protease complex expression was induced with 0.5 millimolar (mM) Isopropyl β-D-1-thiogalactopyranoside (IPTG) for 22 hours (h) at 20° C. […] The cells were resuspended in lysis buffer (10 mL/g) consisting of 25 mM N-(2-Hydroxyethyl)piperazine-N′-(2-Ethane Sulfonic acid) (HEPES), pH 7.5, 20% glycerol, 500 mM Sodium Chloride (NaCl), 0.5% Triton X-100, 1 microgram/milliliter (“μg/mL”) lysozyme, 5 mM Magnesium Chloride (MgCl2), 1 μg/ml DnaseI, 5 mM β-Mercaptoethanol (βME), Protease inhibitor—Ethylenediamine Tetraacetic acid (EDTA) free (Roche), homogenized and incubated for 20 minutes (min) at 4° C. The homogenate was sonicated and clarified by ultra-centrifugation at 235000 g for 1 h at 4° C. Imidazole was added to the supernatant to a final concentration of 15 mM and the pH adjusted to 8.0. The crude protein extract was loaded on a Nickel—Nitrilotriacetic acid (Ni-NTA) column pre-equilibrated with buffer B (25 mM HEPES, pH 8.0, 20% glycerol, 500 mM NaCl, 0.5% Triton X-100, 15 mM imidazole, 5 mM βME). The sample was loaded at a flow rate of 1 mL/min. The column was washed with 15 column volumes of buffer C (same as buffer B except with 0.2% Triton X-100). The protein was eluted with 5 column volumes of buffer D (same as buffer C except with 200 mM Imidazole).
NS3/4A protease complex-containing fractions were pooled and loaded on a desalting column Superdex-S200 pre-equilibrated with buffer D (25 mM HEPES, pH 7.5, 20% glycerol, 300 mM NaCl, 0.2% Triton X-100, 10 mM βME). Sample was loaded at a flow rate of 1 mL/min. NS3/4A protease complex-containing fractions were pooled and concentrated to approximately 0.5 mg/ml.
The enzyme was stored at −80° C., thawed on ice and diluted prior to use in assay buffer. […] The sequence of this peptide is loosely based on the NS4A/NS4B natural cleavage site for the HCV NS3 protease except there is an ester linkage rather than an amide bond at the cleavage site. The peptide substrate was incubated with one of the three recombinant NS3/4A protease complexes, in the absence or presence of a compound of the present invention, and the formation of fluorescent reaction product was followed in real time using a Cytofluor Series 4000.
The reagents were as follow: HEPES and Glycerol (Ultrapure) were obtained from GIBCO-BRL. Dimethyl Sulfoxide (DMSO) was obtained from Sigma. β-Mercaptoethanol was obtained from Bio Rad.
Assay buffer: 50 mM HEPES, pH 7.5; 0.15 M NaCl; 0.1% Triton; 15% Glycerol; 10 mM βME. Substrate: 2 μM final concentration (from a 2 mM stock solution in DMSO stored at −20° C.). HCV NS3/4A protease type 1a (1b), 2–3 nM final concentration (from a 5 μM stock solution in 25 mM HEPES, pH 7.5, 20% glycerol, 300 mM NaCl, 0.2% Triton-X100, 10 mM βME).
The assay was performed in a 96-well polystyrene black plate from Falcon.

[2] = test system: HCV replicon in Huh7 cells; experiment: microbe, parasite or virus in culture; assay type: cell-based, strain 1b; conditions: Hepatitis C virus, Huh-7, 96 h; Huh7 cells expressing HCV replicon, 4 days; activity range class
Description: Generation of HCV Replicon
This system enabled us to evaluate the effects of our HCV Protease compounds on HCV RNA replication. Briefly, using the HCV strain 1b sequence described in the Lohmann paper (Assession number: AJ238799), an HCV cDNA was generated encoding the 5′ internal ribosome entry site (IRES), the neomycin resistance gene, the EMCV (encephalomyocarditis viurs)-IRES and the HCV nonstructural proteins, NS3-NS5B, and 3′ non-translated region (NTR). In vitro transcripts of the cDNA were transfected into the human hepatoma cell line, Huh7. […] Resulting cell lines were characterized for positive and negative strand RNA production and protein production over time.
Huh7 cells, constitutively expressing the HCV replicon, were grown in Dulbecco's Modified Eagle Media (DMEM) containing 10% Fetal calf serum (FCS) and 1 mg/ml G418 (Gibco-BRL). Cells were seeded the night before (1.5×10^4 cells/well) in 96-well tissue-culture sterile plates. Compound and no compound controls were prepared in DMEM containing 4% FCS, 1:100 Penicillin/Streptomysin, 1:100 L-glutamine and 5% DMSO in the dilution plate (0.5% DMSO final concentration in the assay). Compound/DMSO mixes were added to the cells and incubated for 4 days at 37° C. After 4 days, plates were rinsed thoroughly with Phosphate-Buffered Saline (PBS) (3 times 150 μl). The cells were lysed with 25 μl of a lysis assay reagent containing the FRET peptide (RET S1, as described for the in vitro enzyme assay). The lysis assay reagent was made from 5× cell Luciferase cell culture lysis reagent (Promega #E153A) diluted to 1× with distilled water, NaCl added to 150 mM final, the FRET peptide diluted to 10 μM final from a 2 mM stock in 100% DMSO. The plate was then placed into the Cytofluor 4000 instrument which had been set to 340 nm excitation/490 nm emission, automatic mode for 21 cycles and the plate read in a kinetic mode. EC50 determinations were carried out as described for the IC50 determinations. […]
The percentage inhibition was calculated using the formula below: […]
The values were graphed and analyzed using XLFit to obtain the EC50 value.

C=C[C@@H]1C[C@]1(NC(=O)[C@@H]1C[C@@H](Oc2nccc3ccccc23)CN1C(=O)[C@@H](NC(=O)Oc1ccc(C)cc1)C(C)(C)C)C(=O)NS(=O)(=O)C1(Cc2ccccc2)CC1 [Cmpd 200]
IC50 ([1]; read-out: IC50): 1000 to 10000 nM

C=C[C@@H]1C[C@]1(NC(=O)[C@@H]1C[C@@H](Oc2nccc3ccccc23)CN1C(=O)[C@@H](NC(=O)Oc1ccccc1)C(C)(C)C)C(=O)NS(=O)(=O)C1(Cc2ccccc2)CC1 [Cmpd 201]
IC50 ([1]; read-out: IC50): 1000 to 10000 nM

C=C[C@@H]1C[C@]1(NC(=O)[C@@H]1C[C@@H](Oc2nccc3ccccc23)CN1C(=O)[C@@H](NC(=O)Oc1ccc(F)cc1)C(C)(C)C)C(=O)NS(=O)(=O)C1(Cc2ccccc2)CC1 [Cmpd 202]
IC50 ([1]; read-out: IC50): 1000 to 10000 nM

C=C[C@@H]1C[C@]1(NC(=O)[C@@H]1C[C@@H](Oc2nccc3ccccc23)CN1C(=O)[C@@H](NC(=O)Oc1ccc(OC)cc1)C(C)(C)C)C(=O)NS(=O)(=O)C1(Cc2ccccc2)CC1 [Cmpd 203]
IC50 ([1]; read-out: IC50): 1000 to 10000 nM

C=C[C@@H]1C[C@]1(NC(=O)[C@@H]1C[C@@H](Oc2nccc3ccccc23)CN1C(=O)[C@@H](NC(=O)OCCOC)C(C)(C)C)C(=O)NS(=O)(=O)C1(Cc2ccccc2)CC1 [Cmpd 204]
IC50 ([1]; read-out: IC50): 1000 to 10000 nM

C=C[C@@H]1C[C@]1(NC(=O)[C@@H]1C[C@@H](Oc2nccc3ccccc23)CN1C(=O)[C@@H](NC(=O)OCC(C)(C)C)C(C)(C)C)C(=O)NS(=O)(=O)C1(Cc2ccccc2)CC1 [Cmpd 205]
IC50 ([1]; read-out: IC50): 100 to 1000 nM
EC50 [2]: 100 to 1000 nM

C=C[C@@H]1C[C@]1(NC(=O)[C@@H]1C[C@@H](Oc2nccc3ccccc23)CN1C(=O)[C@@H](NC(=O)OCCF)C(C)(C)C)C(=O)NS(=O)(=O)C1(Cc2ccccc2)CC1 [Cmpd 206]
IC50 ([1]; read-out: IC50): 100 to 1000 nM

C=C[C@@H]1C[C@]1(NC(=O)[C@@H]1C[C@@H](Oc2nccc3ccccc23)CN1C(=O)[C@@H](NC(=O)Oc1ccccc1OC)C(C)(C)C)C(=O)NS(=O)(=O)C1(Cc2ccccc2)CC1 [Cmpd 207]
IC50 ([1]; read-out: IC50): 1000 to 10000 nM

C=C[C@@H]1C[C@]1(NC(=O)[C@@H]1C[C@@H](Oc2nccc3ccccc23)CN1C(=O)[C@@H](NC(=O)Oc1cccc(C(F)(F)F)c1)C(C)(C)C)C(=O)NS(=O)(=O)C1(Cc2ccccc2)CC1 [Cmpd 208]
IC50 ([1]; read-out: IC50): 1000 to 10000 nM

C=C[C@@H]1C[C@]1(NC(=O)[C@@H]1C[C@@H](Oc2nccc3ccccc23)CN1C(=O)[C@@H](NC(=O)O[C@@H]1C[C@H](C)CC[C@H]1C(C)C)C(C)(C)C)C(=O)NS(=O)(=O)C1(Cc2ccccc2)CC1 [Cmpd 209]
IC50 ([1]; read-out: IC50): 10000 to 100000 nM
EC50 [2]: 1000 to 10000 nM

C=C[C@@H]1C[C@]1(NC(=O)[C@@H]1C[C@@H](Oc2nccc3ccccc23)CN1C(=O)[C@@H](NC(=O)CC(C)(C)C)C(C)(C)C)C(=O)NS(=O)(=O)C1(Cc2ccccc2)CC1 [Cmpd 210]
IC50 ([1]; read-out: IC50): 1000 to 10000 nM

C=C[C@@H]1C[C@]1(NC(=O)[C@@H]1C[C@@H](Oc2nccc3ccccc23)CN1C(=O)[C@@H](NC(=O)COC)C(C)(C)C)C(=O)NS(=O)(=O)C1(Cc2ccccc2)CC1 [Cmpd 211]
IC50 ([1]; read-out: IC50): 1000 to 10000 nM

C=C[C@@H]1C[C@]1(NC(=O)[C@@H]1C[C@@H](Oc2nccc3ccccc23)CN1C(=O)[C@@H](NC(=O)CCOC)C(C)(C)C)C(=O)NS(=O)(=O)C1(Cc2ccccc2)CC1 [Cmpd 212]
IC50 ([1]; read-out: IC50): 1000 to 10000 nM

C=C[C@@H]1C[C@]1(NC(=O)[C@@H]1C[C@@H](Oc2nccc3ccccc23)CN1C(=O)[C@@H](NC(=O)[C@@H]1COc2ccccc2O1)C(C)(C)C)C(=O)NS(=O)(=O)C1(Cc2ccccc2)CC1 [Cmpd 213]
IC50 ([1]; read-out: IC50): 10000 to 100000 nM

C=C[C@@H]1C[C@]1(NC(=O)[C@@H]1C[C@@H](Oc2nccc3cc(OC)ccc23)CN1C(=O)[C@@H](NC(=O)NC(C)(C)C)C(C)(C)C)C(=O)NS(=O)(=O)C1(C)CC1 [Cmpd 217]
IC50 [1]: < 100 nM
EC50 [2]: < 100 nM

C=C[C@@H]1C[C@]1(NC(=O)[C@@H]1C[C@@H](Oc2nccc3cc(OC)ccc23)CN1C(=O)[C@@H](NC(=O)NC1CCCC1)C(C)(C)C)C(=O)NS(=O)(=O)C1(C)CC1 [Cmpd 218]
IC50 ([1]; read-out: IC50): < 100 nM
EC50 [2]: < 100 nM

C=C[C@@H]1C[C@]1(NC(=O)[C@@H]1C[C@@H](Oc2nccc3cc(OC)ccc23)CN1C(=O)[C@@H](NC(=O)NC(C)(C)CC)C(C)(C)C)C(=O)NS(=O)(=O)C1(C)CC1 [Cmpd 219]
IC50 ([1]; read-out: IC50): < 100 nM
EC50 [2]: < 100 nM

C=C[C@@H]1C[C@]1(NC(=O)[C@@H]1C[C@@H](Oc2nccc3cc(OC)ccc23)CN1C(=O)[C@@H](NC(=O)N1CCC1)C(C)(C)C)C(=O)NS(=O)(=O)C1(C)CC1 [Cmpd 220]
IC50 ([1]; read-out: IC50): < 100 nM
EC50 [2]: 100 to 1000 nM

C=C[C@@H]1C[C@]1(NC(=O)[C@@H]1C[C@@H](Oc2nccc3cc(OC)ccc23)CN1C(=O)[C@@H](NC(=O)OC(C)(C)C)C(C)(C)C)C(=O)NS(=O)(=O)C1(CC)CC1 [Cmpd 300, {1-[2-[1-(1-Ethyl-cyclopropanesulfonylaminocarbonyl)-2-vinyl-cyclopropylcarbamoyl]-4-(6-methoxy-isoquinolin-1-yloxy)-pyrrolidine-1-carbonyl]-2,2-dimethyl-propyl}-carbamic acid tert-butyl ester]
IC50 ([1]; read-out: IC50): < 100 nM
EC50 [2]: < 100 nM

C=C[C@@H]1C[C@]1(NC(=O)[C@@H]1C[C@@H](Oc2nccc3cc(OC)ccc23)CN1C(=O)[C@@H](NC(=O)OC(C)(C)C)C(C)(C)C)C(=O)NS(=O)(=O)C1(C)CC1 [Cmpd 301, (1-{4-(6-Methoxy-isoquinolin-1-yloxy)-2-[1-(1-methyl-cyclopropanesulfonylaminocarbonyl)-2-vinyl-cyclopropylcarbamoyl]-pyrrolidine-1-carbonyl}-2,2-dimethyl-propyl)-carbamic acid tert-butyl ester]
IC50 ([1]; read-out: IC50): < 100 nM
EC50 [2]: < 100 nM

C=C[C@@H]1C[C@]1(NC(=O)[C@@H]1C[C@@H](Oc2nc(-c3ccccc3)nc3ccccc23)CN1C(=O)[C@@H](N)C(C)(C)C)C(=O)NS(=O)(=O)C1(Cc2ccccc2)CC1 [Cmpd 603]
IC50 ([1]; read-out: IC50): 1000 to 10000 nM
